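Test compounds were applied to cells in 96-well plates for 48 hours at 5 doses. TGI denotes the concentration required for complete inhibition of growth.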
Experiments:
Test in all cases: growth of human tumour cells (NCI), 48 h
[1] = system: 786-0 renal
[2] = system: MOLT-4 leukemia
[3] = system: HCC-2998 colon
[4] = system: OVCAR-5 ovarian
[5] = system: OVCAR-4 ovarian
[6] = system: IGROV1 ovarian
[7] = system: NCI-H522 lung
[8] = system: K-562 leukemia
[9] = system: PC-3 prostate
[10] = system: MALME-3M melanoma
[11] = system: RPMI-8226 leukemia
[12] = system: HL-60(TB) leukemia
[13] = system: SK-MEL-28 melanoma
[14] = system: SN12C renal
[15] = system: COLO 205 colon
[16] = system: HCT-15 colon
[17] = system: MCF7 breast
[18] = system: SF-268 CNS
[19] = system: SF-295 CNS
[20] = system: SK-OV-3 ovarian
[21] = system: MDA-MB-231 breast
[22] = system: MDA-N
[23] = system: DU-145 prostate
[24] = system: BT-549 breast
[25] = system: NCI/ADR-RES ovarian
[26] = system: HCT-116 colon
[27] = system: SNB-19 CNS
[28] = system: TK-10 renal
[29] = system: HS 578T breast
[30] = system: U251 CNS
[31] = system: OVCAR-3 ovarian
[32] = system: UACC-257 melanoma
[33] = system: M14 melanoma
[34] = system: EKVX NSCLC
[35] = system: OVCAR-8 ovarian
[36] = system: KM12 colon
[37] = system: SW-620 colon
[38] = system: ACHN renal
[39] = system: NCI-H23 lung
[40] = system: A549 NSCLC
[41] = system: HT29 colon
[42] = system: LOX IMVI melanoma
[43] = system: SK-MEL-5 melanoma
[44] = system: NCI-H226 lung
[45] = system: UO-31 renal
[46] = system: CAKI-1 renal
[47] = system: SR leukemia
[48] = system: MDA-MB-435
[49] = system: HOP-62 NSCLC
[50] = system: SK-MEL-2 melanoma
[51] = system: CCRF-CEM leukemia
[52] = system: A498 renal
[53] = system: SF-539 CNS
[54] = system: HOP-92 NSCLC
[55] = system: SNB-75 CNS
[56] = system: NCI-H460 lung
[57] = system: UACC-62 melanoma
[58] = system: RXF 393 renal

CC(=O)O[C@H]1CC2C(C3CCC(C(C)CCC(=O)O)[C@]31C)[C@H](OC(C)=O)C[C@@H]1CC3(CC[C@]21C)OOC1(CC[C@]2(C)C4C[C@H](OC(C)=O)[C@]5(C)C(C(C)CCC(=O)O)CCC5C4[C@H](OC(C)=O)C[C@@H]2C1)OO3 (some centres not stated)
TGI [1]: 9.32 µM | TGI [2]: 13.1 µM | TGI [3]: 3.8 µM | TGI [4]: 3.5 µM | TGI [5]: 9.84 µM | TGI [6]: 4.25 µM | TGI [7]: 3.03 µM | TGI [8]: > 100 µM | TGI [9]: 3.85 µM | TGI [10]: 3.13 µM | TGI [11]: 14.7 µM | TGI [12]: 3.65 µM | TGI [13]: > 100 µM | TGI [14]: 6.02 µM | TGI [15]: 4.24 µM | TGI [16]: 6.39 µM | TGI [17]: 12.3 µM | TGI [18]: 4.01 µM | TGI [19]: 4.72 µM | TGI [20]: 11.6 µM | TGI [21]: 3.85 µM | TGI [22]: 5.91 µM | TGI [23]: 4.48 µM | TGI [24]: 4.11 µM | TGI [25]: 26.7 µM | TGI [26]: 3.85 µM | TGI [27]: > 100 µM | TGI [28]: 6.8 µM | TGI [29]: 4.1 µM | TGI [30]: 2590 nM | TGI [31]: 3.53 µM | TGI [32]: 4.68 µM | TGI [33]: 8.31 µM | TGI [34]: 9.67 µM | TGI [35]: 4.97 µM | TGI [36]: 3.17 µM | TGI [37]: > 100 µM | TGI [38]: 3.44 µM | TGI [39]: 4.08 µM | TGI [40]: 5.19 µM | TGI [41]: > 100 µM | TGI [42]: 3.11 µM | TGI [43]: 3.11 µM | TGI [44]: 4.21 µM | TGI [45]: 3.32 µM | TGI [46]: 5.15 µM | TGI [47]: 9.55 µM | TGI [48]: 4.31 µM | TGI [49]: 3.97 µM | TGI [50]: 3.64 µM | TGI [51]: 9.87 µM

CC12OC1(C)C1C(=O)OCC1C2=O (configuration not stated)
TGI [1]: > 100 µM | TGI [3]: > 100 µM | TGI [4]: > 100 µM | TGI [5]: > 100 µM | TGI [6]: > 100 µM | TGI [7]: 27.9 µM | TGI [8]: 72.4 µM | TGI [9]: > 100 µM | TGI [10]: 69.7 µM | TGI [11]: > 100 µM | TGI [12]: 54.3 µM | TGI [13]: > 100 µM | TGI [14]: 55.4 µM | TGI [15]: > 100 µM | TGI [16]: > 100 µM | TGI [52]: > 100 µM | TGI [17]: > 100 µM | TGI [18]: > 100 µM | TGI [53]: > 100 µM | TGI [19]: > 100 µM | TGI [20]: > 100 µM | TGI [21]: > 100 µM | TGI [22]: > 100 µM | TGI [23]: > 100 µM | TGI [24]: > 100 µM | TGI [25]: > 100 µM | TGI [26]: > 100 µM | TGI [27]: > 100 µM | TGI [28]: > 100 µM | TGI [54]: > 100 µM | TGI [29]: 94.1 µM | TGI [30]: > 100000 nM | TGI [55]: > 100 µM | TGI [31]: > 100 µM | TGI [32]: > 100 µM | TGI [33]: > 100 µM | TGI [35]: > 100 µM | TGI [36]: > 100 µM | TGI [37]: > 100 µM | TGI [38]: > 100 µM | TGI [39]: > 100 µM | TGI [56]: > 100 µM | TGI [40]: > 100 µM | TGI [41]: > 100 µM | TGI [42]: > 100 µM | TGI [43]: > 100 µM | TGI [44]: > 100 µM | TGI [45]: > 100 µM | TGI [46]: 71.5 µM | TGI [47]: 69.2 µM | TGI [48]: > 100 µM | TGI [57]: > 100 µM | TGI [49]: > 100 µM | TGI [58]: 84.6 µM | TGI [50]: > 100 µM | TGI [51]: 36 µM

— PubChem BioAssay (NCI)
